Data as given in US20040171489A1, “Synergistic active compound combinations for controlling harmful plants” (priority 1998, published 2004).

Legend:
winter wheat [1] = assay: Example 7a field trial, 2-4 leaf stage: crop damage; type: in vivo, Triticum aestivum; conditions: 28 days after application
Procedure: (§1) The herbicidal efficacy of the active compounds or active compound mixtures was scored visually using the treated plots in comparison to untreated control plots. The damage and development of all above-ground parts of the plants were recorded. Scoring was carried out using a percentage scale (100% effect=all plants killed; 50% effect=50% of the plants and the green parts of the plants killed; 0% effect=no noticeable effect=like control plot. The scores of in each case 4 plots were averaged.
(§2) If the observed activity values already exceed the formal sum of the values for the trials with the individual applications, they also exceed the expected value according to Colby which is calculated using the following formula and which is likewise considered to be an indication of synergism (cf. S. R. Colby; in Weeds 15 (1967) p. 20 to 22):
(§3) Crop plants were grown outdoors on plots under natural outdoor conditions, and seeds or rhizome pieces of typical harmful plants were laid out or the natural weed growth was utilized. Treatment with the compositions according to the invention was carried out after the harmful plants had emerged and the crop plants were, generally, at the 2- to 4-leaf stage; in some cases (as stated), application of individual active compounds or active compound combinations was carried out pre-emergence (cf. Section 1) or post-emergence (cf. Section 2) or as a sequential treatment partly pre-emergence and/or post-emergence. After the application, for example 2, 4, 6 and 8 weeks after the application, the effect of the preparations was scored visually by comparison with untreated controls (cf. scoring in Section 1). In the field trial as well, the compositions according to the invention have synergistic herbicidal activity against a broad spectrum of economically important weed grasses and broad-leaved weeds. […] Moreover, the effects in essential phases of the scoring period were above the expected values according to Colby, also indicating synergism. […]

Stellaria media = assay: Example 7b field trial, 2-4 leaf stage: herbicidal effect; type: in vivo; conditions: 50 g of ai/ha; 28 days after application
Procedure: as §1, §2
(§4) Crop plants were grown outdoors on plots under natural outdoor conditions, and seeds or rhizome pieces of typical harmful plants were laid out or the natural weed growth was utilized. […] After the application, for example 2, 4, 6 and 8 weeks after the application, the effect of the preparations was scored visually by comparison with untreated controls (cf. scoring in Section 1). […]

winter wheat [2] = assay: Example 6 field trial, stage begin of VERPE blossom: crop damage; type: in vivo, Triticum aestivum; conditions: 50 g of ai/ha; 28 days after application
Procedure: as §1, §2, §4

Chenopodium album = assay: Example 7a field trial, 2-4 leaf stage: herbicidal effect; type: in vivo; conditions: 28 days after application
Procedure: as §1, §2, §3

Veronica persicaria = assay: Example 6 field trial, stage begin of VERPE blossom: herbicidal effect; type: in vivo; conditions: 50 g of ai/ha; 28 days after application
Procedure: as §1, §2, §4

winter wheat [3] = assay: Example 7b field trial, 2-4 leaf stage: crop damage; type: in vivo, Triticum aestivum; conditions: 50 g of ai/ha; 28 days after application
Procedure: as §1, §2, §4

winter wheat [4] = assay: Example 10 pre-emergence application, fall: crop damage; type: in vivo, Triticum aestivum; conditions: winter wheat (Triticum aestivum), in vivo, 169 days
Description: (§5) Seeds or rhizome pieces of monocotyledonous and dicotyledonous weed plants are placed in sandy loam soil in pots and covered with soil. The compositions, formulated in the form of concentrated aqueous solutions, wettable powders or emulsion concentrates, are then applied to the surface of the soil cover as aqueous solution, suspension or emulsion at an application rate of 600 to 800 l of water/ha (converted), in various dosages. After the treatment, the pots are placed in a greenhouse and kept under good growth conditions for the weeds. After the test plants have emerged, the damage to the plants or the negative effects on the emergence is scored visually after a test period of 3 to 4 weeks by comparison with untreated controls. As shown by the test results, the compositions according to the invention have good herbicidal pre-emergence activity against a broad spectrum of weed grasses and broad-leaved weeds.
as §1, §2
(§6) Crop plants were grown outdoors on plots under natural outdoor conditions, and seeds or rhizome pieces of typical harmful plants were laid out or the natural weed growth was utilized. Treatment with the compositions according to the invention was carried out after the harmful plants had emerged and the crop plants were, generally, at the 2- to 4-leaf stage; in some cases (as stated), application of individual active compounds or active compound combinations was carried out pre-emergence (cf. Section 1) or post-emergence (cf. Section 2) or as a sequential treatment partly pre-emergence and/or post-emergence. After the application, for example 2, 4, 6 and 8 weeks after the application, the effect of the preparations was scored visually by comparison with untreated controls (cf. scoring in Section 1). In the field trial as well, the compositions according to the invention have synergistic herbicidal activity against a broad spectrum of economically important weed grasses and broad-leaved weeds. […] Moreover, the effects in essential phases of the scoring period were above the expected values according to Colby, also indicating synergism. In contrast, the crop plants were, as a consequence of the treatments with the herbicidal compositions, damaged only to a small degree, if at all.

Galium aparine [5] = assay: Example 16 field trial, post-emergence, 2- to 3-leaf stage: herbicidal effect; type: in vivo; conditions: 180 g of ai/ha; 69 days after application
Procedure: as §1, §2, §6

Lamium ssp. = assay: as above; type: in vivo; conditions: 180 g of ai/ha; 69 days after application
Procedure: as §1, §2, §6

Papaver rhoeas [6] = assay: as above; type: in vivo; conditions: 180 g of ai/ha; 69 days after application
Procedure: as §1, §2, §6

Matricaria chamomilla = assay: as above; type: in vivo; conditions: 180 g of ai/ha; 69 days after application
Procedure: as §1, §2, §6

Viola arvensis [7] = assay: as above; type: in vivo; conditions: 180 g of ai/ha; 69 days after application
Procedure: as §1, §2, §6

Myosotis arvensis = assay: as above; type: in vivo; conditions: 180 g of ai/ha; 69 days after application
Procedure: as §1, §2, §6

Anthemis arvensis = assay: as above; type: in vivo; conditions: 180 g of ai/ha; 69 days after application
Procedure: as §1, §2, §6

Galium aparine [8] = assay: Example 10 pre-emergence application, fall: herbicidal effect; type: in vivo; conditions: 180 g of ai/ha; 169 days after application
Description: as §5, §1, §2, §6

winter barley [9] = assay: Example 16 field trial, post-emergence, 2- to 3-leaf stage: crop damage; type: in vivo, Hordeum vulgare; conditions: in vivo
Procedure: as §1, §2, §4

winter wheat [10] = assay: as above; type: in vivo, Triticum aestivum; conditions: in vivo
Procedure: as §1, §2, §4

winter barley [11] = assay: Example 2 field trial, fall application 2-4 leaf stage: crop damage; type: in vivo, Hordeum vulgare; conditions: 45 days after the application
Procedure: as §1, §2, §4

winter wheat [12] = assay: Example 3 field trial, fall application 2-4 leaf stage: crop damage; type: in vivo, Triticum aestivum; conditions: 60 days after application
Procedure: as §1, §2, §4

winter wheat [13] = assay: Example 4 field trial, application fall 2-4 leaf stage: crop damage; type: in vivo, Triticum aestivum; conditions: 100 g of ai/ha; 60 days after application
Procedure: as §1, §2, §4

Papaver rhoeas [14] = assay: Example 2 field trial, fall application 2-4 leaf stage: herbicidal effect; type: in vivo; conditions: 45 days after the application
Procedure: as §1, §2, §4

Papaver rhoeas [15] = assay: Example 5 field trial, 2-4 leaf stage: herbicidal effect; type: in vivo; conditions: 28 days after application
Procedure: as §1, §2, §3

winter barley [16] = assay: Example 5 field trial, 2-4 leaf stage: crop damage; type: in vivo, Hordeum vulgare; conditions: 28 days after application
Procedure: as §1, §2, §3

Viola arvensis [17] = assay: Example 3 field trial, fall application 2-4 leaf stage: herbicidal effect; type: in vivo; conditions: 60 days after application
Procedure: as §1, §2, §4

Aphanes arvensis = assay: Example 4 field trial, application fall 2-4 leaf stage: herbicidal effect; type: in vivo; conditions: 100 g of ai/ha; 60 days after application
Procedure: as §1, §2, §4

Veronica hederifolia = assay: as above; type: in vivo; conditions: 100 g of ai/ha; 60 days after application
Procedure: as §1, §2, §4

Papaver rhoeas [18] = assay: Example 1 field trial, 2-4 leaf stage: herbicidal effect; type: in vivo; conditions: 28 days after application
Procedure: as §1, §2, §6

winter barley [19] = assay: Example 1 field trial, 2-4 leaf stage: crop damage; type: in vivo, Hordeum vulgare; conditions: 28 days after application
Procedure: as §1, §2, §6

CCC(CCc1ccccc1)Nc1nc(N)nc(C(C)(C)F)n1 (stereo not drawn) [(A3), 4-amino-6-(1-fluoro-1-methylethyl)-2-(3-phenyl-1-ethylpropylamino)-1,3,5-triazine]
damage, TRZAW (winter wheat [1]; 25 g of ai/ha): 1%
damage, TRZAW (winter wheat [1]; 50 g of ai/ha): 0%
damage, TRZAW (winter wheat [1]; 100 g of ai/ha): 10%
herbicidal effect, STEME (Stellaria media): 48%
damage, TRZAW (winter wheat [2]): 0%
herbicidal effect, CHEAL (Chenopodium album; 25 g of ai/ha): 5%
herbicidal effect, CHEAL (Chenopodium album; 50 g of ai/ha): 35%
herbicidal effect, CHEAL (Chenopodium album; 100 g of ai/ha): 85%
herbicidal effect, VERPE (Veronica persicaria): 55%
damage, TRZAW (winter wheat [3]): 2%

CC(C)N(C(=O)COc1nnc(C(F)(F)F)s1)c1ccc(F)cc1 [(B1.2.1), fluthiamide, reference compound]
damage, TRZAW (winter wheat [4]): 2%
herbicidal effect (%), GALAP (Galium aparine [5]): 68%
herbicidal effect (%), LAMSS (Lamium ssp.): 87%
herbicidal effect (%), PAPRH (Papaver rhoeas [6]): 12%
herbicidal effect (%), MATCH (Matricaria chamomilla): 61%
herbicidal effect (%), VIOAR (Viola arvensis [7]): 20%
herbicidal effect (%), MYOAR (Myosotis arvensis): 16%
herbicidal effect (%), ANTAR (Anthemis arvensis): 25%
herbicidal effect, GALAP (Galium aparine [8]): 45%
herbicidal effect (%), HORVW (crop) (winter barley [9]): 0%
herbicidal effect (%), TRZAW (crop) (winter wheat [10]): 0%

CC(COc1cccc(Cl)c1)Nc1nc(N)nc(C(C)(C)F)n1 (stereo not drawn) [(A4), 4-amino-6-(1-fluoro-1-methylethyl)-2-[2-(3-chlorophenoxy)-1-methylethyl-amino]-1,3,5-triazine]
damage, HORVW (winter barley [11]; 50 g of ai/ha): 0%
damage, HORVW (winter barley [11]; 100 g of ai/ha): 0%
damage, TRZAW (winter wheat [12]; 50 g of ai/ha): 0%
damage, TRZAW (winter wheat [12]; 100 g of ai/ha): 0%
damage, TRZAW (winter wheat [13]): 0%
herbicidal effect, PAPRH (Papaver rhoeas [14]; 50 g of ai/ha): 0%
herbicidal effect, PAPRH (Papaver rhoeas [14]; 100 g of ai/ha): 0%
herbicidal effect, PAPRH (Papaver rhoeas [15]; 50 g of ai/ha): 0%
herbicidal effect, PAPRH (Papaver rhoeas [15]; 100 g of ai/ha): 0%
damage, HORVW (winter barley [16]; 50 g of ai/ha): 0%
damage, HORVW (winter barley [16]; 100 g of ai/ha): 0%
herbicidal effect, VIOAR (Viola arvensis [17]; 50 g of ai/ha): 78%
herbicidal effect, VIOAR (Viola arvensis [17]; 100 g of ai/ha): 88%
herbicidal effect, Aphanes arvensis (Aphanes arvensis): 20%
herbicidal effect, Veronica hederifolia (Veronica hederifolia): 40%
herbicidal effect, PAPRH (Papaver rhoeas [18]; 25 g of ai/ha): 0%
herbicidal effect, PAPRH (Papaver rhoeas [18]; 50 g of ai/ha): 0%
herbicidal effect, PAPRH (Papaver rhoeas [18]; 100 g of ai/ha): 0%
damage, HORVW (winter barley [19]; 25 g of ai/ha): 0%
damage, HORVW (winter barley [19]; 50 g of ai/ha): 0%
damage, HORVW (winter barley [19]; 100 g of ai/ha): 0%
